Earlier results in patent US20220226447A1, “ANTI-ABETA VACCINE THERAPY” (AC Immune SA, priority 2019, published 2022).

Details: human, in vivo

For AN1792: full-length Aβ1-42 vaccine, the antibody response is given as “induced an antibody response”, the “rate of cognitive decline versus placebo-treated patients” value is given as “slower rate of cognitive decline” and the “treated patients who developed meningoencephalitis” value is given as 6%.
